The assay deals with T1, Recombinant Human 5′-Nucleotidase (CD73) (Homo sapiens, UniProt P21589).
T1 construct: CHO derived CD73 (Trp27-Lys547), with a C-terminal 6-His tag; 6-His (C); purchased R&D 5795-EN; host or cells: CHO
T1 sequence (P21589 27-547): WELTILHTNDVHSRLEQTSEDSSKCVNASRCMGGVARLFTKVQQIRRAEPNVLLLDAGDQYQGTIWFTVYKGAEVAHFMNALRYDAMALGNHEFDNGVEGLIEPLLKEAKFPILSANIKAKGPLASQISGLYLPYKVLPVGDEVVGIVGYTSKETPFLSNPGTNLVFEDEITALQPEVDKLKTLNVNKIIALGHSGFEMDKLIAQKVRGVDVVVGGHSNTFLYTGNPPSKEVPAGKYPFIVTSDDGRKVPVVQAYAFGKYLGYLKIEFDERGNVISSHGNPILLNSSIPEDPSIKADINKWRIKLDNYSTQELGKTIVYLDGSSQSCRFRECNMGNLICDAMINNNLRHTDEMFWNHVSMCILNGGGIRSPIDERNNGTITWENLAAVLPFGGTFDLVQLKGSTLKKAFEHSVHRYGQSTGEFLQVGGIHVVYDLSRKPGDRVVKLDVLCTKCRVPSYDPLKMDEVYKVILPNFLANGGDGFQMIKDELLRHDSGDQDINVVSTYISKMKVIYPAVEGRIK
In words: CD73 Enzyme Assay. The assay is classed as biochemical. To be noted: 0.5 nM human CD73, 30 μM AMP, PiColorLock phosphate detection, OD 635 nm; read-out: Potency (IC50). The text has this:
Soluble recombinant CD73 catalyzes the conversion of adenosine monophosphate (AMP) to adenosine and inorganic phosphate. The phosphate detection reagent, PiColorLock™ (Innova Bioscience, Cat #303-0125) is based on the change in absorbance of the dye malachite green in the presence of inorganic phosphate (Pi) and this property can be exploited to measure any enzyme that generates Pi. Recombinant Human 5′-Nucleotidase (CD73) (R&D #5795-EN, CHO derived CD73 (Trp27-Lys547), with a C-terminal 6-His tag) was used in the enzymatic assay. This assay was run in a 384-well plate format (Corning® NBS™ 384 well plates, Cat #3640). The basic assay procedure involves two steps: 1) Enzyme reaction: The CD73 enzyme (R&D #5795-EN) is incubated in the presence or absence of compounds. AMP (sigma, cat #01930) is added to start the kinase reaction. 2) Detection step: “Gold mix” is added to the assay system, then stabilizers are added. After incubation the absorbance of the solution is read at OD 635 nm. The recorded OD signal is proportional to the enzyme activity.
Briefly, 25 μl human CD73 (0.5 nM final concentration) in the enzymatic buffer solutions (20 mM Tris, 25 mM NaCl, 1 mM MgCl2, pH 7.5, 0.005% Tween-20) were mixed with various concentrations of the test compound (dissolved in 100% DMSO). These solutions were incubated for 15 min at 25° C., and subsequently 25 μl AMP (30 μM final concentration) was added to start the reaction. The final reaction mixture of enzyme-substrate-compound was incubated for 20 min at 37° C. Meanwhile, “Gold mix” was prepared shortly before use by adding 1/100 vol. of accelerator to the PiColorLock™ Gold reagent. 12 μL/well of the “Gold mix” was added to assay plate containing 50 μL enzyme reaction buffer and incubated at 25° C. for 5 min. 5 μL/well stabilizer was added to the assay plate and incubated at 25° C. for 30 min. The absorbance of the well solutions was measured at 635 nm on a Spark 10M instrument (TECAN).
The percent (%) inhibition at each concentration of a compound was calculated relative to the OD value in the Max and Min control wells contained within each assay plate. The Max control wells contained enzyme and substrate as 0% inhibition, and the Min control wells only contained substrate without enzyme as 100% inhibition. The concentrations and percent inhibition values for a test compound are plotted and the concentration of the compound required to achieve 50% inhibition (IC50) was determined with a four-parameter logistic dose response equation.
In general, IC50 refers to the concentration that gives 50% inhibition. For `CN(c1nc(Cl)nc2cc([C@@H]3O[C@H](COP(=O)(O)CP(=O)(O)O)[C@@H](O)[C@@H]3F)ccc12)C1CCCC1` [Compound 15, (((((2R,3R,4S,5S)-5-(2-chloro-4-(cyclopentyl(methyl)amino)quinazolin-7-yl)-4-fluoro-3-hydroxytetrahydrofuran-2-yl)methoxy)(hydroxy)phosphoryl)methyl)phosphonic acid], the IC50 lay within 100 to 999 nM.

For the molecule `O=P(O)(O)CP(=O)(O)OC[C@H]1O[C@@H](c2ccc3c(N[C@@H]4CCOC4)nc(Cl)nc3c2)[C@H](O)[C@@H]1O` [Compound 38, (((((2R,3S,4R,5S)-5-(2-chloro-4-(((R)-tetrahydrofuran-3-yl)amino)quinazolin-7-yl)-3,4-dihydroxytetrahydrofuran-2-yl)methoxy)(hydroxy)phosphoryl)methyl)phosphonic acid], the IC50 lay within 10 to 99 nM. Under `C[C@@]1(O)[C@H](O)[C@@H](COP(=O)(O)CP(=O)(O)O)O[C@H]1c1ccc2c(NCc3ccccc3)nc(Cl)nc2c1` [Compound 34, (((((2R,3R,4R,5S)-5-(4-(benzylamino)-2-chloroquinazolin-7-yl)-3,4-dihydroxy-4-methyltetrahydrofuran-2-yl)methoxy)(hydroxy)phosphoryl)methyl)phosphonic acid] stands greater than 1000 nM; under `O=P(O)(O)CP(=O)(O)OC[C@H]1O[C@@H](c2ccc3c(NCc4ccccc4)nc(C4CC4)nc3c2)[C@H](O)[C@@H]1O` [Compound 45, (((((2R,3S,4R,5S)-5-(4-(benzylamino)-2-cyclopropylquinazolin-7-yl)-3,4-dihydroxytetrahydrofuran-2-yl)methoxy)(hydroxy)phosphoryl)methyl)phosphonic acid], 10 to 99 nM. Regarding `O=P(O)(O)CP(=O)(O)OC[C@H]1O[C@@H](c2ccc3c(NCc4ccccc4)ncnc3c2)[C@@H](F)[C@@H]1O` [Compound 11, [({[(2R,3R,4S,5S)-5-[4-(benzylamino)quinazolin-7-yl]-4-fluoro-3-hydroxyoxolan-2-yl]methoxy}(hydroxy)phosphoryl)methyl]phosphonic acid], the IC50 is greater than 1000 nM. For `O=P(O)(O)CP(=O)(O)OC[C@H]1O[C@@H](c2ccc3c(NCC4CCC(O)CC4)nc(Cl)nc3c2)[C@H](O)[C@@H]1O` (stereo partly drawn) [Compound 42, (((((2R,3S,4R,5S)-5-(2-chloro-4-(((4-hydroxycyclohexyl)methyl)amino)quinazolin-7-yl)-3,4-dihydroxytetrahydrofuran-2-yl)methoxy)(hydroxy)phosphoryl)methyl)phosphonic acid], the half-inhibitory concentration (IC50) lay in the range of 10 to 99 nM. `O=P(O)(O)CP(=O)(O)OC[C@H]1O[C@@H](c2ccc3c(OC4CCCC4)nc(Cl)nc3c2)[C@H](O)[C@@H]1O` [Compound 33, (((((2R,3S,4R,5S)-5-(2-chloro-4-(cyclopentyloxy)quinazolin-7-yl)-3,4-dihydroxytetrahydrofuran-2-yl)methoxy)(hydroxy)phosphoryl)methyl)phosphonic acid]: the 50% inhibitory concentration (IC50) was in the range of 100 to 999 nM. Then `O=P(O)(O)CP(=O)(O)OC[C@H]1O[C@@H](c2ccc3c(NCC4CC(O)C4)nc(Cl)nc3c2)[C@H](O)[C@@H]1O` (stereo partly drawn) [Compound 44, (((((2R,3S,4R,5S)-5-(2-chloro-4-(((3-hydroxycyclobutyl)methyl)amino)quinazolin-7-yl)-3,4-dihydroxytetrahydrofuran-2-yl)methoxy)(hydroxy)phosphoryl)methyl)phosphonic acid], with 10 to 99 nM. As to `O=P(O)(O)CP(=O)(O)OC[C@H]1O[C@@H](c2ccc3c(N4CCc5ccccc54)nc(Cl)nc3c2)[C@H](O)[C@@H]1O` [Compound 30, (((((2R,3S,4R,5S)-5-(2-chloro-4-(indolin-1-yl)quinazolin-7-yl)-3,4-dihydroxytetrahydrofuran-2-yl)methoxy)(hydroxy)phosphoryl)methyl)phosphonic acid], the half-maximal inhibitory concentration (IC50) lay in the range of 100 to 999 nM.

For `O=P(O)(O)CP(=O)(O)OC[C@H]1O[C@@H](c2ccc3c(NC4CCC(O)CC4)nc(Cl)nc3c2)[C@H](O)[C@@H]1O` (stereo partly drawn) [Compound 26, (((((2R,3S,4R,5S)-5-(2-chloro-4-((4-hydroxycyclohexyl)amino)quinazolin-7-yl)-3,4-dihydroxytetrahydrofuran-2-yl)methoxy)(hydroxy)phosphoryl)methyl)phosphonic acid], the 50% inhibitory concentration (IC50) lay within 10 to 99 nM. Turning to `CN(c1nc(Cl)nc2cc([C@@H]3O[C@H](COP(=O)(O)CP(=O)(O)O)[C@@H](O)[C@H]3O)cnc12)C1CCCC1` [Compound 41, (((((2R,3S,4R,5S)-5-(2-chloro-4-(cyclopentyl(methyl)amino)pyrido[3,2-d]pyrimidin-7-yl)-3,4-dihydroxytetrahydrofuran-2-yl)methoxy)(hydroxy)phosphoryl)methyl)phosphonic acid], the IC50 is 10 to 99 nM. For the molecule `O=P(O)(O)CP(=O)(O)OC[C@H]1O[C@@H](c2cc3nc(Cl)nc(NCc4ccccc4)c3cc2F)[C@H](O)[C@@H]1O` [Compound 19, (((((2R,3S,4R,5S)-5-(4-(benzylamino)-2-chloro-6-fluoroquinazolin-7-yl)-3,4-dihydroxytetrahydrofuran-2-yl)methoxy)(hydroxy)phosphoryl)methyl)phosphonic acid], the IC50 is 100 to 999 nM.

Take `O=P(O)(O)CP(=O)(O)OC[C@H]1O[C@@H](c2ccc3c(N[C@H]4CCOC4)nc(Cl)nc3c2)[C@H](O)[C@@H]1O` [Compound 37, (((((2R,3S,4R,5S)-5-(2-chloro-4-(((S)-tetrahydrofuran-3-yl)amino)quinazolin-7-yl)-3,4-dihydroxytetrahydrofuran-2-yl)methoxy)(hydroxy)phosphoryl)methyl)phosphonic acid]: the 50% inhibitory concentration (IC50) was in the range of 10 to 99 nM. Then `O=P(O)(O)CP(=O)(O)OC[C@H]1O[C@@H](c2ccc3c(NC4CCCC4)nc(C4CC4)nc3c2)[C@H](O)[C@@H]1O` [Compound 39, (((((2R,3S,4R,5S)-5-(4-(cyclopentylamino)-2-cyclopropylquinazolin-7-yl)-3,4-dihydroxytetrahydrofuran-2-yl)methoxy)(hydroxy)phosphoryl)methyl)phosphonic acid], with 10 to 99 nM.

As for `O=P(O)(O)CP(=O)(O)OC[C@H]1O[C@@H](c2ccc3c(N4CCC(c5ccccc5)C4)nc(Cl)nc3c2)[C@H](O)[C@@H]1O` (stereo partly drawn) [Compound 35, (((((2R,3S,4R,5S)-5-(2-chloro-4-(3-phenylpyrrolidin-1-yl)quinazolin-7-yl)-3,4-dihydroxytetrahydrofuran-2-yl)methoxy)(hydroxy)phosphoryl)methyl)phosphonic acid], the half-maximal inhibitory concentration (IC50) was 10 to 99 nM.

Regarding `O=P(O)(O)CP(=O)(O)OC[C@H]1O[C@@H](c2ccc3c(N4CCCC4)nc(Cl)nc3c2)[C@H](O)[C@@H]1O` [Compound 29, (((((2R,3S,4R,5S)-5-(2-chloro-4-(pyrrolidin-1-yl)quinazolin-7-yl)-3,4-dihydroxytetrahydrofuran-2-yl)methoxy)(hydroxy)phosphoryl)methyl)phosphonic acid], the half-maximal inhibitory concentration (IC50) lay in the range of 10 to 99 nM. For `O=P(O)(O)CP(=O)(O)OC[C@H]1O[C@H](c2ccc3c(NCc4ccccc4)nc(Cl)nc3c2)[C@@H](F)[C@@H]1O` [Compound 14, [({[(2R,3R,4S, 5R)-5-[4-(benzylamino)-2-chloroquinazolin-7-yl]-4-fluoro-3-hydroxyoxolan-2-yl]methoxy}(hydroxy)phosphoryl)methyl]phosphonic acid], the half-inhibitory concentration (IC50) is greater than 1000 nM.

The record behind these values is US20220185832A1, “CD73 INHIBITORS” (BioArdis LLC, priority 2019, published 2022).
